Test results taken from publication PMC5291098, “Molecular mutagenesis of ppGpp: turning a RelA activator into an inhibitor” (Scientific Reports, 2017).
“Also recorded” adds a separate entry of the source.

Columns and labels:
E. coli RelA = target: T1, E. coli RelA (Escherichia coli, UniProt P0AG20); test: Inhibition of RelA activated by programmed 'starved' ribosomal complexes containing deacylated A-site tRNAPhe; type: biochemical; conditions: 30 nM RelA, 0.5 μM 70S, 2 μM tRNAPhe, 2 μM tRNAiMet, 2 μM mRNA(MF), 100 μM ppGpp, 0.3 mM [3H]GDP, 1 mM ATP, 5 mM Mg2+; read-out: IC50, 70S(MF:tPhe)
T1 construct: made in house
T1 sequence (P0AG20 whole entry): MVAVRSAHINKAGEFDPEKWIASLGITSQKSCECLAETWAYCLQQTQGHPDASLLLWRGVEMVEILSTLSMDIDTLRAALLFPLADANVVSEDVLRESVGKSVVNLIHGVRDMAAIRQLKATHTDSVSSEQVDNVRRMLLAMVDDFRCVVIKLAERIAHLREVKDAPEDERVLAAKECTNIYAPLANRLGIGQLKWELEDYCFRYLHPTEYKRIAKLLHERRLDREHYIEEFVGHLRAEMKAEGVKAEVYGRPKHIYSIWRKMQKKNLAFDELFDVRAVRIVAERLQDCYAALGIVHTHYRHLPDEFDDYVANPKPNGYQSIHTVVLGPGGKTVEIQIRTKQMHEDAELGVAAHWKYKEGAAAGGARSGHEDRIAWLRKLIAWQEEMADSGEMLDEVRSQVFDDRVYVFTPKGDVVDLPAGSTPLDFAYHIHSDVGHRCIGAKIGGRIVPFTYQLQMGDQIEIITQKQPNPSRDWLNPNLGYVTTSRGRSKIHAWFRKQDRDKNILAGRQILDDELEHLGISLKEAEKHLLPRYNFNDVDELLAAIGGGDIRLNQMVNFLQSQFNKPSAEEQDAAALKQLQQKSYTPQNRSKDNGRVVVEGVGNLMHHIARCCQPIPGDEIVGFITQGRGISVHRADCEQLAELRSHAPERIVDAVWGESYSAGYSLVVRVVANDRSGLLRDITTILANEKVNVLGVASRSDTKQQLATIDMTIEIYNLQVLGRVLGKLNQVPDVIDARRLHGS
Experimental: Screening was performed in a cost-efficient way using RelA activated by the presence of vacant 70S ribosomes and 100 μM ppGpp. However, to become fully active, RelA requires the presence of ‘starved’ ribosomal complexes containing deacylated A-site tRNA[17]. We therefore prepared ‘starved’ complexes using model mRNA coding for fMetPhe (MF) dipeptide and purified deacylated tRNAs tRNA^Phe and tRNA^fMeti[42] to test the efficiency of DR-4250 and DR-M014 in this more physiologically relevant system (Fig. 4a,b).
Figure 4 Functional studies of DR-M014 and DR-4250 with programmed ribosomal complexes. (a,b) Inhibition of RelA activated by starved ribosomal complexes containing deacylated A-site tRNA^Phe. […]
Both EF-G GTPase reaction and ppGpp synthesis by RelA were followed by TLC analysis followed by scintillation counting according to Mechold and colleagues, with modifications1. […] TLC was run in buffer, plates dried, cut into sections guided by UV-shadowing and 3H radioactivity was quantified by scintillation counting in Optisafe-3 (Fisher) scintillation cocktail on Perkin Elmer Tricarb 2810TR counter. Conversion of substrate to product was quantified as described in Shyp et al. (2012)2. […]
Screening: all experiments were performed in HEPES:Polymix, Mg2+ of 5 mM, 37 °C. […] Inhibition efficiency (IC50) was calculated using 4-parameter logistic model (Hill equation) as per Sebaugh (2011)3. […]

[1] = target: E. faecalis SAS RelQ (RelQEf) (Enterococcus faecalis, UniProt Q830U9); test: Inhibition of E. faecalis SAS RelQ ppGpp synthesis; type: biochemical; conditions: for Effect on RelQEf activity (in words): concentrations up to 1 mM
E. faecalis SAS RelQ (RelQEf), sequence (Q830U9 entry or part of it): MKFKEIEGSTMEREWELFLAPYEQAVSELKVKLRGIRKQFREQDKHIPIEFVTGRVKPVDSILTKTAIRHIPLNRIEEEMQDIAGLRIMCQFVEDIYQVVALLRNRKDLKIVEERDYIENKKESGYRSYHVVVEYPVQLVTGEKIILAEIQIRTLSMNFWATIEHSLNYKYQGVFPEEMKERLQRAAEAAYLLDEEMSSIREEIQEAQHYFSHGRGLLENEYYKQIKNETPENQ
Excerpt: In E. coli, ppGpp is synthesized by the multi-domain RSHs RelA and SpoT, however, numerous single-domain RSHs – Small Alarmone Synthetases (SAS) – are widely distributed across bacterial taxa[3]. […] Therefore we tested the effects of DR-4250, DR-M014 and DR-5163 on RelQEf activity (Supplementary Figure 2).
Detailed description of experimental procedures can be found in Supplementary Text. Biochemical assays utilize in vitro translation[58] and stringent response[15] systems from E. coli purified components. Experiments were performed in HEPES:Polymix[58] buffer with either 5 (for enzymatically assembled initiation complexes) or 15 mM (for vacant 70 S, as well as non-enzymatically assembled programmed ribosomes) Mg^2+. Expression and purification of E. faecalis RelQ was performed as per Gaca (2015) and colleagues. GTPase and ppGpp synthesis were followed using TLC separation and radiochemical detection of ^3H-labelled nucleotides. Multiple round in vitro transcription assays were performed as per Bernardo et al.[49] with minor modifications. Inhibition efficiency (IC50) was calculated using 4-parameter logistic model (Hill equation) as per Sebaugh[60].
RelQ activity0.4 RelQ activity0.4 RelQ activity0.4
Supplementary Figure 2 | Inhibition of E. faecalis SAS RelQ by DR-4250, DR-
M014 and DR-5163 is inefficient. The reaction mixture contains 0.25 µM RelQEf,
300 µM [3H] GDP, 0.5 mg/ml BSA, 100 µM ppGpp, 1 mM ATP in Hepes:Polymix at […]

[2] = tested on: T2, E. coli σ70-RNAP holoenzyme; test: Multiple round in vitro transcription by σ70-RNAP (rrnB P1 and rna1 promoters); type: biochemical, Escherichia coli; conditions: for Effect of DksA addition on RNAP inhibition, rrnB P1 promoter (in words): 2 μM DksA; for Inhibition of RNAP, rrnB P1 promoter (in words): absence of DksA, irrespective of presence or absence of 100 μM ppGpp
T2 construct: purchased Epicentre
Experimental: Next, we tested their effects on RNAP. […] We used multiple round in vitro transcription driven from the rrnB P1, a well-characterized ppGpp/DksA inhibited promoter, as described earlier[49]. The assays were performed in the presence and absence of 2 μM DksA and/or 100 μM ppGpp (Fig. 5a).
Effect of inhibitors on rrnB P1 (−66 to +50) promoter transcription by RNAP. Graphs depicting inhibitor (0, 0.025, 0.05, 0.15, 0.4 and 0.6 mM) titrations performed at 30 °C in T-buffer with 0.5 nM template (σ^70-rrnB P1 promoter (pRLG6214)) and 5 nM σ^70-RNAP, in presence or absence of 100 μM ppGpp and/or 2 μM DksA. Error bars represent standard deviations of linear regression estimates, each experiment was performed at least three times.
The assays were performed as per Bernardo et al. (2006)4 with minor modifications. Reactions were carried out in T-buffer (50 mM Tris-HCl pH 7.5, 100 mM NaCl, 10 mM MgCl2, 1 mM dithiothreitol, 0.1 mM EDTA and 0.275 mg of BSA per ml) at 30°C. Inhibitors were titrated to final concentrations of 0, 0.025, 0.05, 0.15, 0.4 and 0.6 mM. E. coli s 70-RNAP holoenzyme (Epicentre, final concentration 5 nM) and template plasmid DNA containing s70-rrnB P1 promoter, (pRLG6214, final concentration 0.5 nM) was used for all experiments. Before initiation of transcription, E. coli s70-RNAP holoenzyme and T buffer were incubated at 30°C for 5 min. Above mix was added to predispensed mixture of inhibitor and the template plasmid DNA containing s70-rrnB P1 promoter (pRLG6214), incubated for further 20 min to initiate open complex formation. 2.5 µl of a mixture of ATP (ﬁnal concentration 0.5 mM), GTP and CTP (ﬁnal concentration 0.2 mM each), UTP (ﬁnal concentration 0.08 mM) and [a-32P]-UTP (5 µCi at > 3000 Ci/mmol, PerkinElmer) was added to initiate transcription by RNAP. After 7 min, 1 µl heparin (0.125 mg/ml ﬁnal concentration) was added to the reaction mixture to prevent re-initiation and further incubated for 5 min to allow completion of initiated transcripts. Transcription was terminated by addition of formamide loading buffer and samples were electrophoresed on a 7M urea-5% polyacrylamide gel and quantified by phosphorimaging.

Row | Structure (SMILES) | IC50 (E. coli RelA) [µM] | IC50 ([1]; 0.25 µM RelQEf, 300 µM [3H]GDP, 100 µM ppGpp, 1 mM ATP, 37°C) [µM] | Effect on RelQEf activity (in words) [1] | Effect of DksA addition on RNAP inhibition, rrnB P1 promoter (in words) [2] | Inhibition of RNAP, rrnB P1 promoter (in words) [2] | Inhibition of RNAP, ppGpp-insensitive promoter rna1 (in words) ([2]; presence or absence of 100 μM ppGpp and/or 2 μM DksA (Supplementary Figure 4))
1 | Nc1nc2c(ncn2C2OC(COP(=O)(O)OCP(=O)(O)O)C(OP(=O)(O)OCP(=O)(O)O)C2O)c(=O)[nH]1 (stereo not shown) [DR-4250, Guanosine 3’,5’-di(phosphonomethoxyphosphate)] | 41 ± 7 | 235 ± 19 | inefficient | pronounced protective effect | more potent inhibitors of RNAP then of RelA | the same behavior
2 | Nc1nc2c(ncn2C2CCN(C(=O)P(=O)(O)O)CC2)c(=O)[nH]1 [DR-M014] | 155 ± 14 | – | inefficient; also recorded: almost inactive | pronounced protective effect | more potent inhibitors of RNAP then of RelA | –
